Assay results: ChEMBL document CHEMBL1201862, “PubChem BioAssay data set” (2004)
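Five compound concentrations were applied to cells in 96-well plates for 48 hours; endpoints were derived by simple linear interpolation of the resulting dose-response curve. The concentration for 50% growth inhibition is given as GI50.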 The source made the active and inactive calls. No stated cut-off is given here; in the data, active = GI50 up to about 1.1 µM and inactive = higher.

Tests used:
Assay in all cases: growth of human tumour cells (NCI), 48 h
M19-MEL = test system: M19-MEL
XF498 = test system: XF498
DMS-114 = test system: DMS-114
KM-20L2 = test system: KM-20L2
LXFL 529 = test system: LXFL 529
HOP-18 = test system: HOP-18
DLD-1 = test system: DLD-1
DMS-273 = test system: DMS-273
RXF 631 = test system: RXF 631

Row | SMILES | GI50 (M19-MEL) | GI50 (XF498) | GI50 (DMS-114) | GI50 (KM-20L2) | GI50 (LXFL 529) | GI50 (HOP-18) | GI50 (DLD-1) | GI50 (DMS-273) | GI50 (RXF 631)
1 | Cc1nn(-c2ccccc2)c2nc(N3CCOCC3)nnc12 | > 100 µM (inactive) | 51.8 µM (inactive) | 34.4 µM (inactive) | > 100 µM (inactive) | 53.3 µM (inactive) | < 0.01 µM (active) | 59.2 µM (inactive) | > 100 µM (inactive) | 92.7 µM (inactive)
2 | O=C1NC(=O)C(=Cc2c3ccccc3cc3ccccc23)C(=O)N1 | > 100 µM (inactive) | > 100 µM (inactive) | – | > 100 µM (inactive) | 79.4 µM (inactive) | 83.8 µM (inactive) | – | > 100 µM (inactive) | > 100 µM (inactive)
3 | Nc1nc(=O)c(/N=N/c2ccccc2)c(N)[nH]1 | 39.3 µM (inactive) | 60.1 µM (inactive) | 25.6 µM (inactive) | 59.2 µM (inactive) | – | 38 µM (inactive) | 43.1 µM (inactive) | 37.2 µM (inactive) | –
4 | N#Cc1ccccc1NC(=O)c1ccccc1 | > 100 µM (inactive) | > 100 µM (inactive) | – | > 100 µM (inactive) | – | > 100 µM (inactive) | > 100 µM (inactive) | > 100 µM (inactive) | –
5 | Cc1c2ccnc(C(N)=O)c2c(C)c2c1[nH]c1ccccc12 | 7.46 µM (inactive) | 8.24 µM (inactive) | 8.91 µM (inactive) | 6.62 µM (inactive) | 5.69 µM (inactive) | 9.48 µM (inactive) | 5.07 µM (inactive) | 2.39 µM (inactive) | 4.58 µM (inactive)
6 | CN1CC(C(=O)C2C(=O)c3ccccc3C2=O)C(=O)C(=O)C(C(=O)C2C(=O)c3ccccc3C2=O)C1 (stereo unspecified) | – | > 100 µM (inactive) | > 100 µM (inactive) | – | – | – | > 100 µM (inactive) | > 100 µM (inactive) | > 100 µM (inactive)
7 | COc1ccccc1NC(=O)C1=C(C)NC(C)=C(C(=O)Nc2ccccc2OC)C1c1ccc([N+](=O)[O-])cc1 | – | 3.5 µM (inactive) | 9.12 µM (inactive) | > 100 µM (inactive) | 48.2 µM (inactive) | > 100 µM (inactive) | 46.6 µM (inactive) | 86.7 µM (inactive) | 56.8 µM (inactive)
8 | COC(=O)[C@@H]1CSC(=S)N1C(=O)C[C@H]1CC=CC[C@H]1CC(=O)Sc1ccccc1 | 23.4 µM (inactive) | 16.5 µM (inactive) | – | 20.9 µM (inactive) | 15.3 µM (inactive) | 29.8 µM (inactive) | 17 µM (inactive) | 21.7 µM (inactive) | –
9 | N#Cc1nc(Nc2ccc(Cl)cc2)sc1N | 12.4 µM (inactive) | 14.3 µM (inactive) | 3.07 µM (inactive) | 17.1 µM (inactive) | 3.55 µM (inactive) | 29.4 µM (inactive) | 17.9 µM (inactive) | 13.2 µM (inactive) | –
10 | C=CCc1cc(-c2cc(CC=C)c(O)c(CN(CCCl)CCCl)c2)cc(CN(CCCl)CCCl)c1O | 14.5 µM (inactive) | > 10 µM (inactive) | – | 16.6 µM (inactive) | 12.2 µM (inactive) | 25.2 µM (inactive) | 16.4 µM (inactive) | 7.83 µM (inactive) | 14.1 µM (inactive)
11 | C[N+](C)(C)CC1CCC/C1=N/O (stereo unspecified) | 41 µM (inactive) | 1.68 µM (inactive) | 20 µM (inactive) | 17.8 µM (inactive) | 54.5 µM (inactive) | > 100 µM (inactive) | > 100 µM (inactive) | 60.7 µM (inactive) | –
12 | CC(=O)OCC(OC(C)=O)C(OC(C)=O)C(OC(C)=O)C(=O)CNn1c(-c2ccc(C)cc2)nc2ccccc2c1=O (stereo unspecified) | > 100 µM (inactive) | 16.5 µM (inactive) | 54.1 µM (inactive) | > 100 µM (inactive) | > 100 µM (inactive) | – | – | > 100 µM (inactive) | –
13 | C=CCc1cc(OC)c(O)c(C(=O)/C=C/c2ccc(OC)c(OC)c2)c1 | – | 14.1 µM (inactive) | 17.8 µM (inactive) | > 10 µM (inactive) | 20.9 µM (inactive) | – | 18.4 µM (inactive) | 23.4 µM (inactive) | 25.4 µM (inactive)
14 | CCCCCCCCCCCCCCCC(=O)NC1CCc2cc(O)c(O)c(O)c2-c2ccc(SC)c(=O)cc21 (stereo unspecified) | – | 7.26 µM (inactive) | 1.94 µM (inactive) | 15.7 µM (inactive) | 1.44 µM (inactive) | – | 7.94 µM (inactive) | 4.16 µM (inactive) | 13.2 µM (inactive)
15 | O=C(O/N=C1/CCCC/C1=C\c1ccccc1)c1ccccc1 | > 100 µM (inactive) | > 100 µM (inactive) | 17.1 µM (inactive) | > 100 µM (inactive) | 28.4 µM (inactive) | > 100 µM (inactive) | 30.5 µM (inactive) | 40.3 µM (inactive) | –
16 | O=C1NC(=O)C(C(=O)C(=O)Nc2cccc(C(F)(F)F)c2)C(=O)N1 | > 100 µM (inactive) | – | > 100 µM (inactive) | > 100 µM (inactive) | > 100 µM (inactive) | – | > 100 µM (inactive) | – | –
17 | CCCNC(=O)C(C)(Cl)C(=O)c1ccccc1O (stereo unspecified) | > 100 µM (inactive) | – | > 100 µM (inactive) | > 100 µM (inactive) | > 100 µM (inactive) | > 100 µM (inactive) | > 100 µM (inactive) | > 100 µM (inactive) | –
18 | CCOC(=O)C1C(c2ccc(Br)cc2)N(Cc2ccccc2)C(c2ccc(Br)cc2)C(C(=O)OC)S1(=O)=O (stereo unspecified) | 74.6 µM (inactive) | > 100 µM (inactive) | 66.4 µM (inactive) | > 100 µM (inactive) | > 100 µM (inactive) | 21.9 µM (inactive) | > 100 µM (inactive) | 74.1 µM (inactive) | –
19 | CCOC(=O)c1s/c(=N\Nc2nc3ccccc3cc2C2OCCO2)n(Cc2ccccc2)c1C | > 100 µM (inactive) | > 100 µM (inactive) | > 100 µM (inactive) | > 100 µM (inactive) | > 100 µM (inactive) | > 100 µM (inactive) | > 100 µM (inactive) | > 100 µM (inactive) | > 100 µM (inactive)
20 | C/C(=N\NS(=O)(=O)c1ccccc1)c1ccc[n+]([O-])n1 | > 100 µM (inactive) | – | 97.3 µM (inactive) | > 100 µM (inactive) | 37.8 µM (inactive) | > 100 µM (inactive) | 44.9 µM (inactive) | > 100 µM (inactive) | > 100 µM (inactive)
21 | Nc1nc(SCCC/C=C/B(O)O)nc2c1ncn2C1OC(COP(=O)(O)O)C(O)C1O (stereo unspecified) | > 203 µM (inactive) | > 203 µM (inactive) | > 203 µM (inactive) | > 203 µM (inactive) | – | > 203 µM (inactive) | > 203 µM (inactive) | > 203 µM (inactive) | –
22 | O=C1CC2CCN(C(=O)c3ccccc3)CC2CCN1.O=C1CCC2CC(C(=O)c3ccccc3)CCC2CN1 (stereo unspecified) | > 100 µM (inactive) | – | > 100 µM (inactive) | > 100 µM (inactive) | > 100 µM (inactive) | > 100 µM (inactive) | > 100 µM (inactive) | > 100 µM (inactive) | –
